# Patent US20250235543A1, “MODIFIED PROTEINS AND PROTEIN DEGRADERS” (Cullgen (Shanghai), Inc., priority 2021, published 2025)
# Legend:
# Hs578T = experiment: Cell viability assay, Hs578T; type: cell-based; conditions: Homo sapiens, Hs-578T, 72 h, TNBC, 3 days, read-out: Cellular Anti-proliferation activity (IC50)
# Description: (§1) Cells were treated with CDK4/6 inhibitors palbociclib, ribociclib, or abemaciclib, or heterobifunctional compounds CPD-002 or CPD-031 following a 9-point serial dilution for 3 days.
# (§2) Cells were seeded at a density of 2,000-5,000 cells per well in 96-well assay plates and treated with test compounds following a 10-point serial dilution for 3-6 days. Cell viability was determined using the CellTiter-Lumi assay kit according to the manufacturer's instructions. The dose-response curves were determined and IC50 values were calculated using the GraphPad Prism software following a nonlinear regression (least squares fit) method. Data presented was mean±standard deviation (SD) unless otherwise indicated.
# [1] = test system: cyclin D1, cyclin D2, cyclin D3; experiment: Immunoblot of cyclin D protein levels in Calu-1 (and BT-549) cells; type: cell-based; conditions: for cyclin D downregulation effect after pre-treatment with MG-132, MLN4924 or TAK-243: proteasome, cullin E3 ligase or UAE inhibitor pre-treatment; for DC50 / reduction of cyclin D1, cyclin D2, and cyclin D3 protein levels: immunoblot, dose range; for DC50: 16 hours treatment; for reduction of cyclin D1, cyclin D2, and cyclin D3 protein levels: Calu-1 / BT-549 cells, 16 hours
# Description: Specific exemplary heterobifunctional compounds were characterized in Calu-1, BT-549 and other cells. Cells that express cyclin D1-3 and CDK4/6 proteins were treated with heterobifunctional compounds disclosed herein at indicated concentrations for 16 hours. Cells were collected, lysed and subject to immunoblotting using an antibody specific to cyclin D1, cyclin D2, cyclin D3, CDK4, CDK6 or phosphorylated R^b proteins. Tubulin or GAPDH was used as the loading control. DMSO treatment was used as the negative control.
# In a time-course study, Calu-1 cells were treated with 500 nM CPD-002, or 100 nM CPD-031 for indicated period of time prior to immunoblotting (FIG. 4A-4B).
# The heterobifunctional compound-mediated degradation was dependent on the ubiquitin-proteasome system and cullin E3 ligase. […] In addition, DDB1 E3 ligase was critical for the degrader-induced cyclin D downregulation. Depletion of DDB1 using CRISPR-Cas9 technology attenuated the cyclin D degradation induced by CPD-031 (FIG. 5C).
# To verify that heterobifunctional compound-mediated degradation is dependent on the binding to CDK4-cyclin D complex, we designed three negative control compounds, CPD-042, CPD-049 and CPD-380, which are derived from CPD-002 CPD-031 and CPD-343, respectively. These three control compounds bear the same DDB1 ligand and linker as their corresponding active heterobifunctional compounds but with modified warheads to impair the binding of the control compounds to CDK4. […] However, the binding to CDK4 is not sufficient for cyclin D degradation. Two cereblon (CRBN)-recruiting reference heterobifunctional compounds, CP-10 (Su, J Med Chem, 2019; CAS No.: 2366268-80-4) and BSJ-03-123 (Brand, Cell Chem Biol, 2019; CAS No.: 2361493-16-3) were analyzed in Calu-1 cells.
# MDA-MB-157 = experiment: Cell viability assay, MDA-MB-157; type: cell-based; conditions: Homo sapiens, 72 h; MDA-MB-157, TNBC, 3 days; read-out: Cellular Anti-proliferation activity (IC50)
# Description: as §1, §2
# Cal-62 = experiment: Cell viability assay, Cal-62; type: cell-based; conditions: Homo sapiens, 72 h; Cal-62, TC, 3 days; read-out: Cellular Anti-proliferation activity (IC50)
# Description: as §1, §2
# DDB1 = target: T1, DDB1 (Homo sapiens, UniProt Q16531, D705G/DEL396-460/DEL463-701/I704S/T703N); experiment: SPR binding assay to immobilized DDB1ΔBPB; conditions: binding affinities to DDB1
# T1 construct: His6 (N, cleaved yes); TEV protease cleavage site (N, cleaved yes); made in house; host or cells: SF9 insect cells, Bac-to-Bac baculovirus, pFastBacHTB vector
# Summary of the method: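 Untagged Sf9-expressed DDB1ΔBPB (BPB domain aa 396-705 replaced by GNGNSG linker) amine-coupled to CM5 chip at 10,000-12,000 RU; 25° C, HBS-EP pH 7.4 with 5% DMSO. Compounds injected multi-cycle at 100 μM-3.125 μM (6-point two-fold); double-referenced, solvent-corrected data fit to steady-state model for Kd.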
# [2] = test system: Calu-1, NCI-H522, BT-549, Hs578T, MIA PaCa-2 or other cells; experiment: Inhibition of cancer cell growth, 9-point serial dilution in 96-well plates; type: cell-based; conditions: 3 d treatment
# [3] = time-course, Calu-1 cells, 500 nM CPD-002
# T1 sequence (Q16531 other isoform, or with tags, fused parts or gaps DEL396-460/DEL463-701/T703N/I704S/D705G): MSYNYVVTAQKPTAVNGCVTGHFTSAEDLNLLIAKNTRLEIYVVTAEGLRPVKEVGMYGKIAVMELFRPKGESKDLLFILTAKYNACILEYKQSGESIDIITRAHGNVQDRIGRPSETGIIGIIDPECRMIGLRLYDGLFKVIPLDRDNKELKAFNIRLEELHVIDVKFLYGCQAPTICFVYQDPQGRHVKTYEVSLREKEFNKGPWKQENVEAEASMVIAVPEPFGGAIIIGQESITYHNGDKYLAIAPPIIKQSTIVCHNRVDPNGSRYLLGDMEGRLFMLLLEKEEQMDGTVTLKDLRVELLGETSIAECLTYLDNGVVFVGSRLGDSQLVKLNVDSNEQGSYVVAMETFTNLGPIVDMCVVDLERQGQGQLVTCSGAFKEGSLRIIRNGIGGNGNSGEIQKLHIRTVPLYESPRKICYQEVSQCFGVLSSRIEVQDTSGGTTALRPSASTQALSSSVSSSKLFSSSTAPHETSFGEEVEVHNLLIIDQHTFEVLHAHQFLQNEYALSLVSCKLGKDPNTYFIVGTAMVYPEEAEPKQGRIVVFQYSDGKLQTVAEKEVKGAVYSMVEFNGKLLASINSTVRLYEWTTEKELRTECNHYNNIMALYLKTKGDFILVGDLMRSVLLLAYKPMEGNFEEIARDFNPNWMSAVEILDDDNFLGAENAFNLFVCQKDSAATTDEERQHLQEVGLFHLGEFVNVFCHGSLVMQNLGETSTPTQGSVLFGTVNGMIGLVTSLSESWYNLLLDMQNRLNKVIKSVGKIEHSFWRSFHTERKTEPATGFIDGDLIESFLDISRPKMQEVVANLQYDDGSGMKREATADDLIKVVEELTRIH
SMILES,IC50 (Hs578T) [nM],"cyclin D downregulation effect after pre-treatment with MG-132, MLN4924 or TAK-243 ([1]; Calu-1 cells)",DC50 [1] [nM],"reduction of cyclin D1, cyclin D2, and cyclin D3 protein levels [1]","time to complete degradation of cyclin D proteins [1, 3] [h]","time to significant degradation of cyclin D proteins [1, 3] [h]",IC50 (MDA-MB-157) [nM],IC50 (Cal-62) [nM],Kd (DDB1) [nM],potency at inhibition of multiple cancer cell lines versus CDK4/6 inhibitors [2],"cyclin D3 versus cyclin D1 and D2 degradation, time-course ([1]; Calu-1 cells, 100 nM CPD-031)"
"CC(=O)c1c(C)c2cnc(Nc3ccc(N4CCN(CC(=O)NCCOCCOCCOCCOCCOCCNc5ccc(C(=O)Nc6ncc(C)s6)c(C)c5)CC4)cn3)nc2n(C2CCCC2)c1=O [CPD-002, 4-((1-(4-(6-((6-Acetyl-8-cyclopentyl-5-methyl-7-oxo-7,8-dihydropyrido[2,3-d]pyrimidin-2-yl)amino)pyridin-3-yl)piperazin-1-yl)-2-oxo-6,9,12,15,18-pentaoxa-3-azaicosan-20-yl)amino)-2-methyl-N-(5-methylthiazol-2-yl)benzamide]",215,totally diminished,< 50,particularly effective,≤ 2,≤ 0.5,151,50,20000 to 50000,"significantly more potent than palbociclib, ribociclib, and abemaciclib",
"CC(=O)c1c(C)c2cnc(Nc3ccc(N4CCN(CC(=O)NCCOCCOCCOCCOCCOCCNc5ccc(C(=O)Nc6nc(C)c(C)s6)c(C)c5)CC4)cn3)nc2n(C2CCCC2)c1=O [CPD-031, 4-((1-(4-(6-((6-Acetyl-8-cyclopentyl-5-methyl-7-oxo-7,8-dihydropyrido[2,3-d]pyrimidin-2-yl)amino)pyridin-3-yl)piperazin-1-yl)-2-oxo-6,9,12,15,18-pentaoxa-3-azaicosan-20-yl)amino)-N-(4,5-dimethylthiazol-2-yl)-2-methylbenzamide]",38,totally diminished,< 20,particularly effective,,,28,5,< 20000,"significantly more potent than palbociclib, ribociclib, and abemaciclib",slower cyclin D3 degradation compared to cyclin D1 and D2 degradation
